Data from US6380277B1, “Iodonium salt photoinitiators containing urethane groups for cationic curing” (Goldschmidt AG, priority 1999, dated 2002).
One block for each molecule: values may come before it.

How the values were obtained:
Solubility in toluene = type: physicochemical
Excerpt: The solubility of the iodonium salts of the invention was compared with the solubility of the hydroxyl-bearing iodonium salts.

[1] = Tests relating to cationic photopolymerization (UV curing of coating)
Excerpt: In order to examine the activity of the compounds shown in Examples 1-4 in cationic photopolymerization, 98 parts of a cycloaliphatic epoxysilane having an epoxy value of 3.5% and a viscosity of 125 mPas were mixed with 2 parts of each photoinitiator.
The mixtures were then applied to a standard OPP film (30 μm) using a pilot-scale coating machine equipped with a five-roll applicator unit. The application weight was 0.5-1 g/m^2. The coatings were subsequently cured with a microwave-excited UV lamp (Fusion, 120 W/cm) at a web speed of 20 m/min.
Directly following passage under the UV lamp, it was determined whether the coatings have cured to a film which is no longer tacky.

[2] = Miscibility with organopolysiloxanes containing epoxy groups; type: physicochemical
[3] = Hydrolytic stability: time to formation of visible precipitates or crystals; type: physicochemical; details: time to formation of visible precipitates or crystals of hydrolytic cleavage product formula (XI)
Excerpt: The improved hydrolytic stability of the iodonium salts of the invention containing urethane groups may best be shown in comparison with the iodonium salt with the formula (XVI), containing Si—O—C bonds (see German Patent Application 19901531.7). [drawing 19]
Indicated is the time to the formation of visible precipitates or crystals of the hydrolytic cleavage product with the formula (XI): […]

solubility in toluol (Solubility in toluene): unrestricted solubility
SMILES: CCCCCCCCCCCCC(COc1ccc([I+]c2ccccc2)cc1)OC(=O)Nc1cccc(C(F)(F)F)c1 (stereo not drawn) [Formula (VII)]

SMILES: CCCCCCCCCCCCC(O)COc1ccc([I+]c2ccccc2)cc1 (stereo not drawn) [Formula (VIII)]
solubility in toluol (Solubility in toluene): insoluble | Appearance of the mixture ([1]; 2 parts photoinitiator in 98 parts cycloaliphatic epoxysilane (epoxy value 3.5%, 125 mPas)): cloudy, | Curing after the UV lamp ([1]; 2 parts photoinitiator, 0.5-1 g/m^2 on OPP film, UV lamp 120 W/cm, web speed 20 m/min, judged directly after lamp): unsatisfactory; | miscibility with organopolysiloxanes containing epoxy groups [2]: no miscibility

SMILES: CCCCCCCCCCCCC(O)COc1ccc([I+]c2ccccc2)cc1 (stereo not drawn) [Formula (XI)]
Solubility in toluene (Solubility in toluene): insoluble | melting point: 91 °C

Stability in 1-butanol (50% w/w) ([3]; 50% w/w in 1-butanol): 2 days | Stability in toluene (50% w/w) ([3]; 50% w/w in toluene): 21 days
SMILES: CCCCCCCCCCCCC(COc1ccc([I+]c2ccccc2)cc1)O[Si](C)(C)C (stereo not drawn) [Formula (XVI)]
